By IC50 is commonly meant the concentration that inhibits the measured activity by half. What is called Ki is a dissociation constant, usually derived from enzyme kinetics or from competition with a known ligand. As usually defined, the EC50 is the concentration that produces a half-maximal response. As usually defined, the AC50 is the concentration at which the activity in the assay is half-maximal.

Nine compounds from ChEMBL document CHEMBL1201862, “PubChem BioAssay data set” (2004) can be followed below.

The source made the active and inactive calls. Where only a bound is given, the exact number is not on record here.

The target in experiment [1] is T1, Ubiquitin-conjugating enzyme E2 N (Homo sapiens, UniProt P61088).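 Note: Dose-response confirmation in a TR-FRET assay detecting UBC13-driven polyubiquitin chain formation, inhibition measured.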
T1 sequence (P61088 whole entry): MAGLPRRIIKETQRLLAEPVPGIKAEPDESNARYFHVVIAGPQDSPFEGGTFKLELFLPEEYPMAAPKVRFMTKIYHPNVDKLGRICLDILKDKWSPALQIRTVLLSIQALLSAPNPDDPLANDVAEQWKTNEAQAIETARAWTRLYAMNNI
In kind it is functional.

For another experiment, the target named is Melanocortin receptor 4 (Homo sapiens, UniProt P32245). Put plainly: MC4R antagonist potency on cAMP, dose response, cell-based, TR-FRET, biased antagonists (AID 602298).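 Note: antagonist potency against agonist-stimulated cAMP production.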 In kind it is functional.
Experiment [2] can be described thus: nonselective inhibitors of cellular cAMP signaling, dose response, counter-screen for MC4R biased antagonist project, cell-based, TR-FRET cAMP detection (AID 602305).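 Note: U2OS cells stimulated with forskolin near its EC80 as the cAMP inducer; potency is for inhibition of forskolin-stimulated cAMP signaling.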 Format: functional. For orientation: Counterscreens check selectivity or assay interference.
Another experiment concerns the target LIM domain kinase 1 (Homo sapiens, UniProt P53667). Put plainly: Navigating the Kinome. Panel member name: LIMK1. In kind it is functional.
Experiment [3] concerns the target Rho-associated protein kinase 1 (Homo sapiens, UniProt Q13464). Format: functional.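 Note: measured within a broad kinome-wide panel profiling many kinases.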
The target in experiment [4] is Cyclin-dependent kinase 8 (Homo sapiens, UniProt P49336). Put plainly: Navigating the Kinome. Panel member name: CDK8. Format: functional.
For experiment [5], the target named is Vascular endothelial growth factor receptor 1 (Homo sapiens, UniProt P17948). Format: functional.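 Note: measured within a kinome-wide profiling panel, FLT1 as the panel member.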
In experiment [6] the target is Cyclin-dependent kinase 9 (Homo sapiens, UniProt P50750). Format: functional.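 Note: value from the CDK9 entry of a kinome-spanning kinase panel.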
Experiment [7] concerns the target Dual specificity protein kinase CLK4 (Homo sapiens, UniProt Q9HAZ1). Format: functional.
The target in experiment [8] is T2, C-C chemokine receptor type 6 (Homo sapiens, UniProt P51684).
T2 sequence (P51684 whole entry): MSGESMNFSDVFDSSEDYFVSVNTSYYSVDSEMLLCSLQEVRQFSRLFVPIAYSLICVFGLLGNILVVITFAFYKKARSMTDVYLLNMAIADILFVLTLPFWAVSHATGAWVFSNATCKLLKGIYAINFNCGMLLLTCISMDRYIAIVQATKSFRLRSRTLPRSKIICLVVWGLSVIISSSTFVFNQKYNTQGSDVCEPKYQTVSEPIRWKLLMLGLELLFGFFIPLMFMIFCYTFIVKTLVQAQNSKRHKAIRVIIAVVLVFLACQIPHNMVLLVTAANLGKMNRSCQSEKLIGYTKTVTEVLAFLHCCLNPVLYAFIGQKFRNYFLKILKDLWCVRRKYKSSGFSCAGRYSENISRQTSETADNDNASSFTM
Put plainly: CCR6 receptor antagonists, dose response, cell-based, luminescent beta-arrestin readout (AID 504728). Format: functional.

A further experiment addresses Beta-galactosidase (Escherichia coli, UniProt Q8VNN2). Put plainly: beta-galactosidase enzyme inhibitors and activators, dose response, artefact control for CCR6 antagonist project, biochemical, E. coli enzyme, set 3 (AID 504712). In kind it is functional.
In a further experiment the target is T3, Hexokinase HKDC1 (Homo sapiens, UniProt Q2TB90).
T3 sequence (Q2TB90 whole entry): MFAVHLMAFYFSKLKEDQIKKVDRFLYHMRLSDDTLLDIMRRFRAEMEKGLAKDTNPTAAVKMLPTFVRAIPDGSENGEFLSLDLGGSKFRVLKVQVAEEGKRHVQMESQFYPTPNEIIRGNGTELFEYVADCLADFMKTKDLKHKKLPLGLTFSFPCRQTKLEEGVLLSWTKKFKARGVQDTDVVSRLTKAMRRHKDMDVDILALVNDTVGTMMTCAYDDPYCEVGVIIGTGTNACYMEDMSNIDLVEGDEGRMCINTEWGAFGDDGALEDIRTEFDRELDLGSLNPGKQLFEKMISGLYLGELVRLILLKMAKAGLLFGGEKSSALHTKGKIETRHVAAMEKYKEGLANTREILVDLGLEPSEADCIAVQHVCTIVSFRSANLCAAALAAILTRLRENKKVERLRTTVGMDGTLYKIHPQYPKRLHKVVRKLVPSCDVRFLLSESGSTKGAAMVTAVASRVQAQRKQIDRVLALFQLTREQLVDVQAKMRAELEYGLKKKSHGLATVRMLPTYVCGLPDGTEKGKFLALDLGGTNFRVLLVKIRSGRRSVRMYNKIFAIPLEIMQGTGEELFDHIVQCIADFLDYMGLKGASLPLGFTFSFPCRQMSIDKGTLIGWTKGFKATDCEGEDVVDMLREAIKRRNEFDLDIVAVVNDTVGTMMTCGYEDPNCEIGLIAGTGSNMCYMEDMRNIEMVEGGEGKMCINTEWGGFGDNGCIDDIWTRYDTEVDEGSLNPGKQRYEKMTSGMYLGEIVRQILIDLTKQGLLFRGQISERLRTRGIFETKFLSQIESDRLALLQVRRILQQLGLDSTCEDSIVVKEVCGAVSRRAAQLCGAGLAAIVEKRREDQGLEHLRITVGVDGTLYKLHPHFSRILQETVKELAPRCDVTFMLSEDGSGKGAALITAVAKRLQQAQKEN
Put plainly: HKDC1 hexokinase inhibitors, dose response, biochemical, W721R variant (AID 504729). Format: functional.

A further experiment addresses T4, Cysteine protease ATG4B (Homo sapiens, UniProt Q9Y4P1).
T4 sequence (Q9Y4P1 whole entry): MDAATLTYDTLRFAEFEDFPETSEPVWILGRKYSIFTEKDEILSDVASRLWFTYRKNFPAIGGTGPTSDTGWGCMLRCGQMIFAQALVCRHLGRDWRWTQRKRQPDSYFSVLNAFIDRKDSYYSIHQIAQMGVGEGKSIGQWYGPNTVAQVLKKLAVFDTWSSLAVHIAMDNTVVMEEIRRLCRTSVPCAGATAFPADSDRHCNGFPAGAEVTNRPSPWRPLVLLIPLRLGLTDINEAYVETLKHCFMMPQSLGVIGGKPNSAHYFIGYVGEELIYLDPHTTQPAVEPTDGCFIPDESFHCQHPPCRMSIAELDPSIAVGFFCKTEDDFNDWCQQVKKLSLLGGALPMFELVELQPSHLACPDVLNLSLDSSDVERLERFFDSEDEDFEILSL
In kind it is functional.

The target in another experiment is Phospholipase A2 (Homo sapiens, UniProt P04054). In kind it is functional.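 Note: confirmatory dose-response counterscreen on phospholipase A2, testing hits that came from an ultra-high-throughput screen for ATG4B inhibitors.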
For a further experiment, the target named is Genome polyprotein (dengue virus type 2, UniProt P29990). Put plainly: Dengue-2 NS5 methyltransferase inhibitors, primary screen, biochemical, confirmation dose response (AID 588689). Format: functional.
The target in experiment [9] is Ribosomal protein S6 kinase beta-1 (Homo sapiens, UniProt P23443). Format: functional.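 Note: measured as one member of a kinome-wide profiling panel.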
The target in experiment [10] is Proto-oncogene tyrosine-protein kinase ROS (Homo sapiens, UniProt P08922). In kind it is functional.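 Note: ROS1 tested as one member of a kinome-wide kinase panel.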
Experiment [11] addresses Ras and Rab interactor 1/Tyrosine-protein kinase ABL1 (Homo sapiens, UniProt P00519+Q13671). Format: functional.
The nature of experiment [12]: A cytotoxicity screen of small molecule inhibitors of the PhoP region in Salmonella typhi identified in the primary screen. [Related pubchem assays: 1850, 1864, 1985 ]. In kind it is functional.
For a further experiment, the system named is HEK293. Put plainly: inhibitors of LMP1-driven NF-kB reporter, dose response, cell-based, HEK293, luciferase, cherry-pick (AID 588343). As to conditions: Homo sapiens. Format: functional.
The target of experiment [13] is T5, High affinity choline transporter 1 (Homo sapiens, UniProt Q9GZV3).
T5 sequence (Q9GZV3 whole entry): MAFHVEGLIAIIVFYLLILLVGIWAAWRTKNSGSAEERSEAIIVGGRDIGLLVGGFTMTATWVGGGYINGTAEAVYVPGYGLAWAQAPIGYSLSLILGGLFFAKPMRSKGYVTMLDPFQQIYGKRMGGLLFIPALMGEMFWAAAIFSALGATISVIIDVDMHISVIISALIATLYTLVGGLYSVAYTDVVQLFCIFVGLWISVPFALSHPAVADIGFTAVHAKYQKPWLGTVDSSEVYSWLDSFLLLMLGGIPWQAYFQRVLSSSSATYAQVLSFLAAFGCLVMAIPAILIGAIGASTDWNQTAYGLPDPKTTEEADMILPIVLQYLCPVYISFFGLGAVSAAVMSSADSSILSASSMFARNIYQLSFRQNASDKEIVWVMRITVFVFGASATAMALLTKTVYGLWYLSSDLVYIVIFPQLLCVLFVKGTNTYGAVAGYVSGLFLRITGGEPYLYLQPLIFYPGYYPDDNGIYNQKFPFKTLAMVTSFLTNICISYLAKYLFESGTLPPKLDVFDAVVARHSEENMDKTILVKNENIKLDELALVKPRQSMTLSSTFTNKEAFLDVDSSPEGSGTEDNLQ
Put plainly: CHT inhibitors, dose response, cell-based, 5-point CRC, membrane potential dye (AID 504840). In kind it is functional.

For experiment [14], the target named is T5, High affinity choline transporter 1. Put plainly: CHT inhibitors, dose response, cell-based, 10-point CRC, membrane potential dye (AID 588401).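 Note: membrane potential dye fluorescence of choline-evoked depolarization via CHT.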 In kind it is functional.
Experiment [15] has as its system Streptococcus sp. 'group A'. Put plainly: growth inhibition of control SK(-) GAS strain, dose response, counter-screen for streptokinase expression inhibitor project, luminescence, kanamycin, BacTiterGlo, confirmation (AID 1900). In kind it is functional, organism-based.
In another experiment the target is T6, Estrogen receptor (Homo sapiens, UniProt P03372).
T6 sequence (P03372 whole entry): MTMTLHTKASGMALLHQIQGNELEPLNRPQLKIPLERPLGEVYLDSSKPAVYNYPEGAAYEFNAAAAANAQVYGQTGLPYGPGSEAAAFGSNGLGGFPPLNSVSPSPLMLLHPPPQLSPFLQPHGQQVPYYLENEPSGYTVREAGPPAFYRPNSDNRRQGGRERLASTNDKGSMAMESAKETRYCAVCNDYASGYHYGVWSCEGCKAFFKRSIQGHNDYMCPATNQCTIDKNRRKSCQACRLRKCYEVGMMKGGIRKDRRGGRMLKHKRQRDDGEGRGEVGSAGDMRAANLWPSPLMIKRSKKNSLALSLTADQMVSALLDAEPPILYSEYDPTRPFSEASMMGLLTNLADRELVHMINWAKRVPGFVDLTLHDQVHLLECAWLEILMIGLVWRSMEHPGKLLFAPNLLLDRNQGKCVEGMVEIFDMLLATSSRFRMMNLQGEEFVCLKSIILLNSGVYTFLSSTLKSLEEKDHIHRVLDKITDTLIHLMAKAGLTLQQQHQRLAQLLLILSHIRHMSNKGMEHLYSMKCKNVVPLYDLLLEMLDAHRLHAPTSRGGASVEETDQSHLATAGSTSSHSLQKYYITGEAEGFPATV

Experiment [16] deals with T7, Estrogen receptor beta (Homo sapiens, UniProt Q92731).
The target in experiment [17] is T7, Estrogen receptor beta. Put plainly: ERβ–SRC-3 coactivator interaction inhibitors, confirmation, orthogonal assay, biochemical, ELISA, streptavidin-HRP readout (AID 1060).
Another experiment has as its system Streptococcus. Put plainly: Group A Streptococcus viability loss, dose response, counter-screen for streptokinase expression inhibitor project, luminescence, BacTiterGlo (AID 1915).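 Note: potency for reduction of bacterial viability or growth.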 Format: functional, organism-based.
In a further experiment the target is Nonstructural protein 1 (Influenza A virus, UniProt Q194T2). In kind it is functional, Influenza A virus (A/California/07/2009(H1N1)).
Experiment [18] deals with DNA (cytosine-5)-methyltransferase 1 (Homo sapiens, UniProt P26358). Put plainly: DNMT1 methyltransferase inhibitors, confirmation, biochemical, fluorescent molecular beacon (AID 602386). In kind it is functional.

Chain of Beta-galactosidase (Q8VNN2 whole entry): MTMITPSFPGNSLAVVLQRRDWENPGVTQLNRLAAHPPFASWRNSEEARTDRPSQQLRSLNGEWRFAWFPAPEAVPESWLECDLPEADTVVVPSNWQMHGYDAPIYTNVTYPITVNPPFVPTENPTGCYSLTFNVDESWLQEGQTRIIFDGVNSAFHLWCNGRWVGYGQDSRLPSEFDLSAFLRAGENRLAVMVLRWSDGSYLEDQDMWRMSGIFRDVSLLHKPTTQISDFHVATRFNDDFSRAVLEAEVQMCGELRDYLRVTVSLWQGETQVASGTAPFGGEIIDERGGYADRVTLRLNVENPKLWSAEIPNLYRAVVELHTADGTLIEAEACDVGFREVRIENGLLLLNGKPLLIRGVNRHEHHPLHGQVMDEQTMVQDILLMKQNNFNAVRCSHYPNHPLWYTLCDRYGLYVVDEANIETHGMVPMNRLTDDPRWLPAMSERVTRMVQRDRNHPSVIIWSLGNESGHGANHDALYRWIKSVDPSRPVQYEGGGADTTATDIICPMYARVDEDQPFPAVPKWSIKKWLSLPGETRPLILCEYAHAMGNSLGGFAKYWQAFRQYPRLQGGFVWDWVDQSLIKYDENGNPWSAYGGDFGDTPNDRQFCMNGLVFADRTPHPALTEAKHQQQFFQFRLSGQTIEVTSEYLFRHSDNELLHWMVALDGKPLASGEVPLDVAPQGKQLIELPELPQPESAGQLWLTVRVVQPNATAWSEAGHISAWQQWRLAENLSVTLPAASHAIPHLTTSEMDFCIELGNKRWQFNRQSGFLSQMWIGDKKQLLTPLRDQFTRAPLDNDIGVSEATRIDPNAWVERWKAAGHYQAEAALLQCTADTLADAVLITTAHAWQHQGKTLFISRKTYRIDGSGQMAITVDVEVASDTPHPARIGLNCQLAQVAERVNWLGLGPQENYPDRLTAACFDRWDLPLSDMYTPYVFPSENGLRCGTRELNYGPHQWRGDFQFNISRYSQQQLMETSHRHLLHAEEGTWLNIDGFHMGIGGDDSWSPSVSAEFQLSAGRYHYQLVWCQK
Chain of Melanocortin receptor 4 (P32245 whole entry): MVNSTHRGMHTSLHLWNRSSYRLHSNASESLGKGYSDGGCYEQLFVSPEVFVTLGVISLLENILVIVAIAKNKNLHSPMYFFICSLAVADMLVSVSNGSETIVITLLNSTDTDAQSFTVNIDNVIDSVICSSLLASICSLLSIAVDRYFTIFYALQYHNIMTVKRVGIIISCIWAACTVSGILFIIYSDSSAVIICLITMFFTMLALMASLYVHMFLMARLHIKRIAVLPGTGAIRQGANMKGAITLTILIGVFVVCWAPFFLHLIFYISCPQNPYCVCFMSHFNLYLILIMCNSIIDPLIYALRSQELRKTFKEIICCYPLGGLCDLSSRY
T7 sequence (Q92731 whole entry): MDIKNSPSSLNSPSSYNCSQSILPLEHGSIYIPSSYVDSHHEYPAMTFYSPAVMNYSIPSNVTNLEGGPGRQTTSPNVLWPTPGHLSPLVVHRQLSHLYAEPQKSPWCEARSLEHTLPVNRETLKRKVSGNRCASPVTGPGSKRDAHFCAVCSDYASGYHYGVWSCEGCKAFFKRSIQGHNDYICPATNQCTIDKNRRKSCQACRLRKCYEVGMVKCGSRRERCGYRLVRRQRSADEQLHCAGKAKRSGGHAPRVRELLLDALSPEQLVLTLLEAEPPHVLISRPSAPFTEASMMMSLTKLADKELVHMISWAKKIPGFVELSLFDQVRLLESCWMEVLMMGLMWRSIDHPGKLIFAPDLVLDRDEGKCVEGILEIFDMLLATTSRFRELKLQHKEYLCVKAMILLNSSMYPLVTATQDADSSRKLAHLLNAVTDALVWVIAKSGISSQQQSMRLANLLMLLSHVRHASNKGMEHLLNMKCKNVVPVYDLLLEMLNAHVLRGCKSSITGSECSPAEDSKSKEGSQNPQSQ
Chain of Genome polyprotein (P29990 2492-3391 limits assumed): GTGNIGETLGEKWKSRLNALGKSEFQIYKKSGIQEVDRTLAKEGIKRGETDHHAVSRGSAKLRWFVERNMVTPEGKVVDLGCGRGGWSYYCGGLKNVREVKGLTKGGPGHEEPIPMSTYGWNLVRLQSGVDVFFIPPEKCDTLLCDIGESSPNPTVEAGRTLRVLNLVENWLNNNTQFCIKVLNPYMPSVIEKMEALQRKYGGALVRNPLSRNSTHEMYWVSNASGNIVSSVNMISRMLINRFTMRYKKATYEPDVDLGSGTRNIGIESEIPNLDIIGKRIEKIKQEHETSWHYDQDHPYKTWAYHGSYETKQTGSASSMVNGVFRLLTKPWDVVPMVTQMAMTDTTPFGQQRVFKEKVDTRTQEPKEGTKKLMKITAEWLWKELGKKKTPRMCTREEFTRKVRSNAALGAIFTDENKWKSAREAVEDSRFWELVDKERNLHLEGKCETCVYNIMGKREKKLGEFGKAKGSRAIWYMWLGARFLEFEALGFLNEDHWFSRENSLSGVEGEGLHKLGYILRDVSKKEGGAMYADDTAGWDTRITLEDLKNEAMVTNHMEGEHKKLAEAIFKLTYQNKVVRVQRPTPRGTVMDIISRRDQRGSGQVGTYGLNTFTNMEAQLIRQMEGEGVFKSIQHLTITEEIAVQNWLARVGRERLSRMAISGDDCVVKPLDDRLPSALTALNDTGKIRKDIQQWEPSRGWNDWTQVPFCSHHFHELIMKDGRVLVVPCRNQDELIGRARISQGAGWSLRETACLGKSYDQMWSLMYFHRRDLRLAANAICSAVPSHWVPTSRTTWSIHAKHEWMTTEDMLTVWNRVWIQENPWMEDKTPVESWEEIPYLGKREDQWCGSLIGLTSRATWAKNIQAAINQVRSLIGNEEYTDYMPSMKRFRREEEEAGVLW
Chain of Vascular endothelial growth factor receptor 1 (P17948 whole entry): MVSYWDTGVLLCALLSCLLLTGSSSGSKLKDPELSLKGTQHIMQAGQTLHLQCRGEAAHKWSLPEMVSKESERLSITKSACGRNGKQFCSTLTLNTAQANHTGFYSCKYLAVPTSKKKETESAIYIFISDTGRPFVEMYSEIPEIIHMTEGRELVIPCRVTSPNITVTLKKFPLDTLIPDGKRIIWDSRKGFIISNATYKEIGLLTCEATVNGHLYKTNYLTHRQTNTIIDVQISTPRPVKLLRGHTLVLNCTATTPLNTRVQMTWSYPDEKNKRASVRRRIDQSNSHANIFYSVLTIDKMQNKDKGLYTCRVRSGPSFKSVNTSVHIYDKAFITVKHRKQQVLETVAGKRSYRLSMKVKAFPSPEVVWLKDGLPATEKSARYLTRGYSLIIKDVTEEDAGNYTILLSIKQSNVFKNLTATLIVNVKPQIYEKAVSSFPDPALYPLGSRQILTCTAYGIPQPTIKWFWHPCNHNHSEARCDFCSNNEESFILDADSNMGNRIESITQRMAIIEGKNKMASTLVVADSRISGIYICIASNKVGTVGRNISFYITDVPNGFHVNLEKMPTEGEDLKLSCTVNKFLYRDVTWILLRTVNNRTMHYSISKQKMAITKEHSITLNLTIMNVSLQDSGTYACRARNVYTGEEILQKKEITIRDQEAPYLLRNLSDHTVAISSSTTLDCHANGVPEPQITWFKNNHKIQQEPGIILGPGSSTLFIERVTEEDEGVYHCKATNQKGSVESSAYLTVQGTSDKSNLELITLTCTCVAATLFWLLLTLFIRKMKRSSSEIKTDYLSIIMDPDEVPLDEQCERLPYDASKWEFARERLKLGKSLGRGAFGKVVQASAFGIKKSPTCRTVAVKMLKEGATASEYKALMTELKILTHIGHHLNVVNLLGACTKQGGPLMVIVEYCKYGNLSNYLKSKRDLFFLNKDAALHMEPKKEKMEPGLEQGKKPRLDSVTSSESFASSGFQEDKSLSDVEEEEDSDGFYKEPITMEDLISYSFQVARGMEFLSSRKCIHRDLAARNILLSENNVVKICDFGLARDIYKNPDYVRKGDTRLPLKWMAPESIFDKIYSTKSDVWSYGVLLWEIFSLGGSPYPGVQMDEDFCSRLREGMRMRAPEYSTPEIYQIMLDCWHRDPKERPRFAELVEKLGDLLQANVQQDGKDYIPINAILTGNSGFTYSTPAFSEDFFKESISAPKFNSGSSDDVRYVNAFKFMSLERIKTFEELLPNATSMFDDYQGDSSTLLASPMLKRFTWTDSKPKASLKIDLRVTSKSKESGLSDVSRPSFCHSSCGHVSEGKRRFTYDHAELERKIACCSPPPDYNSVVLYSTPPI
Chain of Nonstructural protein 1 (Q194T2 whole entry): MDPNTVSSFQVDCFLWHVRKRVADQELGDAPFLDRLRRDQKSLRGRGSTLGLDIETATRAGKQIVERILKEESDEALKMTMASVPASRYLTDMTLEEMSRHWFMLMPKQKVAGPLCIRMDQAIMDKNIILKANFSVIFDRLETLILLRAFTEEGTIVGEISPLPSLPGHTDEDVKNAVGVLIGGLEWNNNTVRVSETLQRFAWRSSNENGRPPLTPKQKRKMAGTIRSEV
Chain of Cyclin-dependent kinase 9 (P50750 whole entry): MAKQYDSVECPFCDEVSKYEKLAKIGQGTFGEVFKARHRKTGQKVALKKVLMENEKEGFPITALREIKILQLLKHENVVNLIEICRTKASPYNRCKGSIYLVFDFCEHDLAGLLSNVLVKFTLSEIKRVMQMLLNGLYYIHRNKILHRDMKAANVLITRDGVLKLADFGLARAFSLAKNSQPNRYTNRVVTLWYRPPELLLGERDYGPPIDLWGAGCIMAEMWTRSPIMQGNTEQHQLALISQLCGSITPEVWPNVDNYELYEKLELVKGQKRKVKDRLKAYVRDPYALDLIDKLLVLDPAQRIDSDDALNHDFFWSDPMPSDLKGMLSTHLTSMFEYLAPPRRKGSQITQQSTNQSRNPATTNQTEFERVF
Chain of Phospholipase A2 (P04054 whole entry): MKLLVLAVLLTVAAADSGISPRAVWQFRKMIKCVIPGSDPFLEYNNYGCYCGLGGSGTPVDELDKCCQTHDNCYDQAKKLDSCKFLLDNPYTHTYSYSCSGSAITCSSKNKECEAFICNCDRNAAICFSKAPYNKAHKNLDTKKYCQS

`CC(C)[C@H](CN1CCC[C@H]1CN1C(N)=NC[C@@H]1Cc1ccccc1)N1C[C@@H](Cc2ccccc2)N(CCc2ccc(Cl)c(Cl)c2)C1=N`: the IC50 in experiment [1] is > 20 µM (inactive); at Melanocortin receptor 4, 7.16 µM (active); in experiment [2], > 64.6 µM (inactive).

As to `Cc1ccccc1-c1cccc2nccn12`, the inhibition constant Ki at LIM domain kinase 1 is 79.4 µM (active); in experiment [3] it was 63.1 µM (active); in [4], 12.6 µM (active); in [5] it was 15.8 µM (active); in experiment [6], 39.8 µM (active); in experiment [7] it was 79.4 µM (active).

With `COC1=C(Br)C(=O)c2ncccc2C1=O`, the IC50 in experiment [8] was > 66.6 µM (inactive); at Beta-galactosidase it was > 66.6 µM (inactive); at Hexokinase HKDC1 it was 3.56 µM (active); at Cysteine protease ATG4B it was 3.53 µM (active); on Phospholipase A2, > 80 µM (inactive); at Genome polyprotein, 3.41 µM (active).

As for `O=C1/C(=C/c2ccc([N+](=O)[O-])cc2)C=C(c2ccccc2)N1c1ccc(O)cc1`, the IC50 in experiment [8] is > 66.6 µM (inactive); on Beta-galactosidase it was > 66.6 µM (inactive); on Melanocortin receptor 4, > 64.6 µM (inactive); in [2] it was > 64.6 µM (inactive).

In the case of `O=C(Cc1cccc2cnccc12)NCc1ccc(Br)cc1`, the Ki in [9] is 6.31 µM (active); in [10], 1.58 µM (active).

As for `CN(CCc1ccccc1)C(=O)c1ccc(NC(=O)Cc2ccc(NC(=O)C3CCN(C(=O)C4CCCC4)CC3)cc2)cc1`, the 50% inhibitory concentration (IC50) in [11] is 1.38 µM (active).

Consider `Cc1nnc(SCc2cnc(-c3ccc(C(C)C)cc3)s2)n1C`, for which the EC50 in experiment [12] is > 50 µM (active). Besides, the AC50 in the experiment with HEK293 is 4.43 µM (active). Besides, the values for the IC50 in experiment [13] and in experiment [14] were 1.28 µM (active) and 10 µM (active), respectively.

As to `Cc1nn(-c2ccccc2)c(Cl)c1/C=N/Nc1ccc(S(=O)(=O)Nc2ccccc2C(=O)O)cc1[N+](=O)[O-]`, the EC50 in experiment [15] is 1.86 µM (active); in the experiment with Streptococcus, 4.27 µM (active). The IC50 at Estrogen receptor is 6.84 µM (active); at Estrogen receptor beta [16], 7.26 µM (active); on Estrogen receptor beta [17], > 50 µM (not active); on Nonstructural protein 1, 67.6 µM (active); at Genome polyprotein, 33.1 µM (active); in experiment [18], 4.29 µM (active).

`O=C(O)CC1=C(Nc2ccccc2)C(=O)N(c2ccccc2)C1c1ccc(Br)cc1` (stereo unspecified): the concentration for half-maximal inhibition (IC50) in experiment [13] is 5.55 µM (active); in experiment [14] it was 3.98 µM (active).
